In patent US20130039956A1, “USE OF NITROCARBOXYLIC ACIDS FOR THE TREATMENT, DIAGNOSIS AND PROPHYLAXIS OF AGGRESSIVE HEALING PATTERNS” (priority 2010, published 2013):

Assays:
[1] = test system: Tracheas of adult Wistar rats; experiment: Tissue damage due to barotrauma ex vivo (tracheal rings); format: cell-based; conditions: inhibitor 10 micromol, 6 hours before traumatization
Protocol: In order to determine the effects of nitrated fatty acids on mechanical trauma to tracheal cells, an ex vivo model was established. Tracheas of adult Wistar rats sacrificed with thiopental given intraabdominally were carefully resected (harvested). Whole (intact) tracheas were cultured in DMEM 10 (Sigma) supplemented with antibiotic/antimycotic drugs for 48 hours at 37° C. Tracheas were cut into five pieces of equal size. One piece was immediately analyzed, two were bathed in 0.9% saline, one was bathed in a solution containing native fatty acid in SDS (1%), and one was bathed in a solution containing nitro fatty acid, respectively, for 15 minutes each. The inner diameters of the tracheal rings were measured. A non-compliant balloon catheter for use in vascular interventions was chosen, so that the nominal balloon diameter was 15-20% larger than that of the trachea. One tracheal ring pretreated with 0.9% saline was left untreated; the other prepared tracheal rings were mounted on the balloon catheter, which was inflated to a pressure of 4 atm thereafter. Balloons were kept inflated for 4 hours, while being positioned in the culture medium. Thereafter, the tracheal rings were further cultivated in separate vials for 24 hours. In a separate set of investigations, sense/antisense ODNs for HO-1 (Invitrogen) directed against the translation initiation codon in the HO-1 cDNA was used to inhibit hemoxydase-1 synthesis. The cells were transfected using the Superfect transfection reagent (Qiagen) before traumatization. In another set of experiments, the HO inhibitor SnPP IX (Porphyrin Products, London, UK) was added to the culture medium 6 hours before traumatization at a dose of 10 micromol.
For analysis, the rings were cut into small strips using a no touch technique. Viability was tested using a MTT assay and apoptosis using a TUNEL assay. Anti-HO-1 antibodies (StressGen, Tebu, Le-Perray-en-Yvelines, France) were measured by Western blot and immunohistochemistry.

human dermal fibroblasts = experiment: Extra cellular matrix production (collagen-1) in response to TGF-β2 in dermal fibroblasts; format: cell-based
Protocol: In order to determine whether PPRA gamma stimulation due to nitrated fatty acids plays a role in the inventive inhibition of an aggressive healing pattern to an irritating stimulus, human dermal fibroblasts were investigated. A dominant-negative PPAR gamma mutant (L466A) cell clone was generated by polymerase chain reaction-based site-directed mutagenesis. Presence of PPAR gamma or absence was investigated using a PPAR gamma antibody reaction which was determined using an enhanced chemiluminescence detection system. Furthermore, one cell series was incubated with a selective irreversible PPAR gamma ligand (GW9662, 1 μmol), which effectively blocks PPAR gamma receptors.
Sequential cultivation of human dermal fibroblasts was performed in EMEM containing 5 mM glucose supplemented with 10% FCS under standard cultivation conditions. Cells were allowed to grow to confluence in a 96-well plate. Wild-type fibroblasts and PPAR gamma deficient fibroblasts were investigated by a set-up of 2×10 sample sets comprising: (1) blank control; (2) stimulation control; (3) preincubation with the PPAR gamma antagonist GW9662 (Cayman Chemical); (4) preincubation with the PPAR agonist troglitazone (25 μmol). In 2×4 sample sets, native fatty acids were added to the medium to achieve a final concentration of 10 and 50 μmol, respectively; in another 2×4 sets the nitrated fatty acids were added to the medium in the same concentration, while 2×2 sets served as controls. In 10 of the sets, TGF-β2 was added to the culture medium at a concentration of 25 ng/ml. Cultivation was continued for 48 hours and then processed in order to analyze collagen-1 as measured by enhanced chemiluminescence detection of immuncomplexes.

[2] = test system: human umbellical endothelial cells (HUVEC); experiment: Adhesion, propagation and growth of endothelial cells on coated polystyrene films; format: cell-based; conditions: days 3, 7, 14, compared with native FA; further: key: 0: not superior to native FA (control); +: Superior to native FA; ++: superior to both; +++: outstanding effect
Protocol: Polystyrene scaffolds were prepared and pretreated in the same manner as performed in example 1 by using the same nitrocarboxylic acids as listed in table 1. The film samples were placed in a culture dish containing a gel matrix, in which human umbellical endothelial cells (HUVEC) had been allowed to grow to confluence. The culture medium consisted of 5% FCS, which was replaced every 5 days. Cultivation was performed according to standard conditions. Films were evaluated at days 3, 7, and 14 after careful extraction from the culture dishes, rinsing with saline solution, and staining with methylene blue. Using a reflected light microscope, the films were immediately examined to evaluate the following: Propagation of cells to the film center, cell confluidity, multilayer formation, and cell shape.

[3] = test system: Human peripheral blood mononuclear cells (PBMCs); experiment: Adhesion of serum proteins and monocyte activation induced by coated silicone; format: cell-based; conditions: dip-coated silicone, PBMCs 3 days; compared with native FA; further: key: 0: not superior to native FA (control); +: Superior to native FA; ++: superior to both; +++: outstanding effect
Protocol: In order to determine the effect of coating implant materials with nitro fatty acids to reduce adsorption of adhesion molecules and monocyte activation, sterile silicone sheets were out in small pieces and coated with respective nirocarboxylic acid and the corresponding native fatty acids by dip coating. Uncoated silicone pieces served as controls. For each fatty acid two sets of silicone pieces were bathed in freshly drawn human serum for 1 hour at 37° C., and another two sets were bathed in saline solutions. One set of both coated and uncoated pieces was analyzed immediately for adhesion proteins and the other set was placed in 96-well plates after rinsing the silicone pieces. Human peripheral blood mononuclear cells (PBMCs), isolated from three healthy subjects, were added to each well. Wells were incubated for 3 days under standard conditions. Culture supernatants were assayed for IL-1beta, IL-6, IL-8, and chemoattractant protein 1 (MCP-1) levels at the start and end of experiments.
Before analyzing the silicone pieces for protein adsorption, they were bathed in saline for 5 minutes. Thereafter, one side was rinsed with saline as performed for both sides in the set used for culturing. There was marked adsorption of fibrinogen and […] C5b-9 on the uncoated silicone. […] No protein was found on the surface of the nitro fatty acid-coated sample that was rinsed, thus, indicating the weak adherence of serum proteins.

[4] = test system: Murine macrophage-like cells RAW 264.7 and murine L929 fibroblasts; experiment: Monocyte/fibroblast co-culture on coated surgical suture material; format: cell-based; conditions: dip-coated suture material, 24 and 48 hours; compared with native FA; further: key: 0: not superior to native FA (control); +: Superior to native FA; ++: superior to both; +++: outstanding effect
From the text: In order to determine immunoreactions to foreign material and its consequence on fibrogenesis, co-cultures of fibroblasts and monocytes were used. Commercially available suture materials (propylene, polyamide, and silk) were dip-coated with corresponding native and nitrated fatty acids. Untreated suture material served as control. Treated and untreated suture materials were out in small pieces and placed in a 96-well plate.
Murine macrophage-like cells RAW 264.7 and murine L929 fibroblasts were cultured to a population density of 5×10(5) each. Cell suspensions were merged achieving a cellularity of approximately 2.5×10(5) cell/ml of each cell population which were added to the wells. The suture material samples were fully covered by the suspension. Wells were continuously and gently shaken throughout the incubation period.
Supernatants were collected for assays after 24 and 48 hours and analyzed for profibrotic cytokines IL-13, IL-4, and IL-6, TGF-β1, collagen I.

Cardiomyocytes = experiment: TGF-β1-inducible formation of extracellular matrix in cardiomyocytes under shear stress; format: cell-based; conditions: 10-100 μmol, shear stress up to 100 dyn/cm^2; compared with native FA; further: key: 0: not superior to native FA (control); +: Superior to native FA; ++: superior to both; +++: outstanding effect
Protocol: Characterizing features of the fibrous remodelling in the heart are accentuated expression and deposition of extracellular matrix proteins (ECM). This has been attributed to increased mechanical forces via autocrine release of transforming growth factor-beta (TGF-beta). […] An established cell culture model was used to investigate the effect of shear stress on cardiomyocytes. Cardiomyocytes were cultured and transferred to a matrigel substrate. Plates with confluenced cells were placed into a shear force injury device (SFID). The SFID design is based on a cone-and-plate construction which is a well-defined rheological model in which a homogenously distributed laminar flow over the surface of the cells is generated by a rotating cone. The conical surface is positioned above a stationary flat plate and the fluid medium between these two surfaces is set in motion by rotating the cone to create a uniform level of fluid shear stress throughout the entire surface of the cells cultured on the coverslips.
A peak shear stress of 100 dyn/cm^2 could be applied without significant cell detachment enabling a maximum injury severity of 46%. Cells were exposed to FCS 1% without or with nitro-fatty acid, and the corresponding native fatty acid in a dosage range between 10 μmol and 100 μmol, 10 seconds before shear force application. Shear force peaks up to 100 dyn/cm^2 with a duration of 30 msec each with a repetition frequency of 60/minute were applied for 5, 10, 30 and 60 minutes. Thereafter the cell plates were washed and placed in FCS 1% for 24 hrs. The supernatant of the shear force investigation as well as that of the following culture phase was analysed. It could be shown that TGF-beta and ECM proteins (collagen I, fibronectin, laminin, elastin) increased after treatment in the control groups.

adult rats = experiment: Fibrogenesis after traumatic and thermal tissue damage in dermal wound healing in vivo; design: species or system rat; conditions: 100 micromol ethanolic solution on wound margins, 8 weeks, compared with native FA
From the text: In order to determine the effects of nitrated fatty acids on fibrogenesis in response to traumatic and thermal tissue damage, an in vivo rat model was investigated. Paravertebral scalpel incision (two on each side) of approximately 1 cm in length and a depth of 1 mm were made in 12 anesthetized adult rats (150-200 g) of either sex after disinfection. Bleeding was stopped by manual compression. The entire length of the wound margins of one incision at each side were additionally cauterized using a 3-mm ball electrode connected to a DRE ASG-120 electrosurgical generator. Wound margins of one side were then covered with a sterile ethanolic 0.9% saline solution, or with a sterile ethanolic solution of the fatty acids (100 micromol), or with a sterile ethanolic solution of the nitrated fatty acids (100 micromol) using a sterile brush. A 1×10 mm cotton string that was bathed in the ethanolic solution containing 0.9% saline, native fatty acid or nitrated fatty acids was placed upon the incision site that had been closed by manual adaptation. The adaptation result and the cotton strings were fixed by an adhesive film. The animals were housed and fed according to institutional standards. The wound films were carefully removed after 2 weeks. Animals were euthanized after 8 weeks. The skin wounds were harvested, including the epidermis, dermis, and subcutaneous loose tissue with the surrounding normal tissue. The removed tissues were fixed in formalin and then embedded in paraffin. The cutting plane was vertical to the longitudinal axis of the former incisions. Slices (4-6 μm) were stained with H&E and Masson trichrome staining to evaluate the amount and density of collagen.

fibroblasts = experiment: Mechanical alteration of fibroblasts (cyclic stretching of coated polypropylene meshes); format: cell-based; conditions: day 21 to end of follow-up
From the text: In order to simulate the effects of chronic shear forces on a healing wound, an in vitro model was established. A flat balloon was placed on the bottom of a Petri dish. A silicone sheet was placed above and sealed with the side of the Petri dish. Then a 3 mm agar layer was casted on top of the sheet. Commercially available polypropylene meshes for hernia repair (microporous mesh, a low-weight and macroporous mesh with absorbable polyglactin filaments, and a heavy-weight and microporous mesh) were placed on the agar plates and fixed at 4 points at the side of the Petri dish. This setting enabled stretching of the meshes by filling the balloons with air, which was performed at 10-second intervals using an automated pumping device. The model can be used to evaluate the effect of three-dimensional (3D) shear forces on cell growth during cell cultivation. Preincubated suspensions of fibroblasts (1.5×10(5) cells) in a culture medium (10% FCS) were added to the culture dishes and allowed to grow for 48 hours. Cyclic stretching was started at day 3. Histological analysis was performed from the central portions of the meshes at day 7, at day 21, and after 8 weeks. The scaffolds were detached from the culture plate and carefully rinsed. Then, they were cut into pieces, casted, and further processed for standard histology and immunohistology. Care was taken to achieve a cutting plane that was vertical to the surface plane of the meshes. Histological analysis evaluated the cellularity, the content of extra cellular matrix (ECM), and the magnitude of protein synthesis. Meshes were dip-coated with native and nitro fatty acids or left blank in the same manner as in example 1. The uncoated meshes served as controls.

C=CC1=C(C)C2=Cc3c(C=C)c(C)c4[n]3[Sn]([Cl])([Cl])[n]3c(c(C)c(CCC(=O)O)c3=CC3=NC(=C4)C(C)=C3CCC(=O)O)=CC1=N2 [HO-1 inhibitor, reference compound]
HO-1 production [1]: reduced the HO-1 production to the lower detection limit or complete absence

Cc1c(C)c2c(c(C)c1O)CCC(C)(COc1ccc(CC3SC(=O)NC3=O)cc1)O2 (stereo not shown) [PPAR agonist, troglitazone, reference compound]
reduction of collagen-1 concentrations as compared to the control (human dermal fibroblasts; TGF-β2 stimulated, PPAR-positive cells, 25 μmol): 35-40%

O=C(Nc1ccccc1)c1cc([N+](=O)[O-])ccc1Cl [PPAR gamma antagonist, reference compound]
collagen-1 after TGF-β2 stimulation (human dermal fibroblasts; PPAR gamma-positive and -negative cells): marked increase of collagen-1

CCCCCC=CCC=C(C/C=C\CCCCC(=O)O)[N+](=O)[O-] [compound 20, 9-nitro-cis-6,9,12-octadecatrienoic acid]
Relative differences: effect on adhesion, propagation and growth of endothelial cells [2]: 0
Relative effect on serum protein adhesion and monocyte activation [3]: +
Relative effect on profibrotic cytokines and collagen I on suture material [4]: 0
Relative efficacy to suppress TGF-beta and ECM proteins in cardiomyocytes (Cardiomyocytes): +
Relative effect on collagen-1 production in response to TGF-β2 (human dermal fibroblasts; 10 and 50 μmol, TGF-β2 25 ng/ml, 48 hours, compared with native FA): +
Relative effect on fibrogenesis (scar formation) in dermal wound healing (adult rats): +

nitrooleic acid
density of actinmyosin filaments in fibroblasts (fibroblasts): more actin-myosin fibers (intra-cellular green filaments) than fibroblasts within the coated meshes
